Test results as given in publication PMC12038849, “Identification and Characterization of a Leoligin-Inspired Synthetic Lignan as a TGR5 Agonist” (Journal of Natural Products, 2025).

Molecular target: T1, G-protein coupled bile acid receptor 1 (GPBAR1 or TGR5) (Homo sapiens, UniProt Q8TDU6)
T1 construct: human TGR5-ORF (NM_170699), stably expressed in HEK EPAC cells
T1 sequence (Q8TDU6 1-330): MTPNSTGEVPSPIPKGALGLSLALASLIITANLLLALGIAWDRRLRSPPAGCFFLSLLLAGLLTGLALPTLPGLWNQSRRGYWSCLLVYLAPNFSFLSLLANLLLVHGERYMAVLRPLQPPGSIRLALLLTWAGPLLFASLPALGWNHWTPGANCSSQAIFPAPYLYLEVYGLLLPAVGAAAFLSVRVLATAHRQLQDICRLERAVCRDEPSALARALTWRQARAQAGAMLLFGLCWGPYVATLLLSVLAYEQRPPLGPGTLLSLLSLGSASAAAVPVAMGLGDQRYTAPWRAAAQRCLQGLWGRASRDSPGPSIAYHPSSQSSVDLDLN
Experiment: EPAC FRET cAMP accumulation assay in TGR5-expressing HEK cells; inactive in non-TGR5 cells
Assay type: cell-based

C/C=C(/C)C(=O)OCC[C@H]1[C@@H](Cc2ccc(OC)c(OC)c2)CO[C@@H]1c1ccc(OC)c(OC)c1 [compound 1, LT-188A]
EC50: 23 µM
